Counter-ions that a name gives are not always drawn.

Format in all cases: biochemical
One assay deals with purified human thrombin (Homo sapiens, UniProt P00734). Nature of the assay: Inhibition of purified human thrombin, fibrinogen substrate (selectivity). To be noted: thrombin 0.7 nM, substrate human fibrinogen 6 μM, fibrin formed read at 405 nm; read-out: IC50 with respect to thrombin.
Assay [1] concerns the target T1, purified human activated protein C (Homo sapiens, UniProt P04070).
T1 construct: purchased Diagnostica Stago
Nature of the assay: Inhibition of purified human activated protein C, chromogenic substrate S2366. To be noted: activated protein C 2 nM, inhibitor preincubated 20° C., 30 minutes, substrate pyroGlu-Pro-Arg-pNA 0.39 mM, read at 405 nm; read-out: IC50 with respect to activated protein C.
Procedure: (§1) The inhibitors, enzymes and substrates are diluted in the same buffer (0.01 mM phosphate buffer pH 7.4 containing 0.12M sodium chloride and 0.05% bovine serum albumin in the case of thrombin and 50 mM TRIS-HCl buffer pH 7.4 containing 0.12M sodium chloride, 3 mM calcium chloride and 0.05% bovine serum albumin in the case of activated protein C and plasmin) and then dispensed in a volume of 50 μl onto a polystyrene microplate.

The target of a further assay is T2, purified human plasmin (Homo sapiens, UniProt P00747).
T2 construct: purified human plasmin (2 nM, Stago); purchased Stago
T2 sequence (P00747 581-810 limits assumed): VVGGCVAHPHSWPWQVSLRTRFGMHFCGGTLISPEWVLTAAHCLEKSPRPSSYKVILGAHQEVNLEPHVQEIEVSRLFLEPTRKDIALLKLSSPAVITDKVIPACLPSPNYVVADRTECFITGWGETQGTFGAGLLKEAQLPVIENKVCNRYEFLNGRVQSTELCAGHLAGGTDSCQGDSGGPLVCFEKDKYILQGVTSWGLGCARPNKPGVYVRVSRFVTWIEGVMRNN
T2 sequence (P00747 97-580 limits assumed): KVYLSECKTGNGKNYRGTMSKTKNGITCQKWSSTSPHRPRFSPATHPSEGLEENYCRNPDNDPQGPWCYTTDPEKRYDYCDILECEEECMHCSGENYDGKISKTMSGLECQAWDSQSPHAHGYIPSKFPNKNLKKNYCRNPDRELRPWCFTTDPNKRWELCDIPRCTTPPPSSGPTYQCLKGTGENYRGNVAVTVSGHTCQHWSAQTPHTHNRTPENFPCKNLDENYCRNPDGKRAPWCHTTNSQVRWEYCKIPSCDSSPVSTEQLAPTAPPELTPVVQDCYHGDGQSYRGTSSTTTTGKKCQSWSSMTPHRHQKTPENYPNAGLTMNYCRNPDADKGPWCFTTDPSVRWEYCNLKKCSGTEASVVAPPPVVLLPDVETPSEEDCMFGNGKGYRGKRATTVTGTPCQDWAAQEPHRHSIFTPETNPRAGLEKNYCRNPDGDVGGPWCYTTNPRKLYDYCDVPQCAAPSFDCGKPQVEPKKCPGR
As to the kind of experiment: Inhibition of purified human plasmin, chromogenic substrate S2403 (selectivity). To be noted: plasmin 2 nM, substrate <Glu-Phe-Lys-pNA 0.37 mM, read at 405 nm; read-out: IC50 with respect to plasmin. As to the method: In order to assess in vitro the inhibitory activity of products of the invention on purified human activated protein C (Diagnostica Stago), the chromogenic substrate pyroGlu-Pro-Arg-pNA (0.39 mM, S2366, Chromogenix) was added to a given amount of activated protein C (2 nM) previously incubated with or without the inhibitor under test (20° C., 30 minutes).
In order to assess in vitro the selectivity with respect to thrombin and plasmin, the same protocol was applied to purified human thrombin (0.7 nM, Sigma) and to purified human plasmin (2 nM, Stago), using as substrates purified human fibrinogen (6 μM, Enzyme Research Laboratories) and the paracitroanilide peptide <Glu-Phe-Lys-pNA (0.37 mM, S2403, Chromogenix), respectively.
The inhibitors, enzymes and substrates are diluted in the same buffer ([…] phosphate buffer pH 7.4 containing 0.12M sodium chloride and 0.05% bovine serum albumin in the case of thrombin and 50 mM TRIS-HCl buffer pH 7.4 containing 0.12M sodium chloride, 3 mM calcium chloride and 0.05% bovine serum albumin in the case of activated protein C and plasmin) and then dispensed in a volume of 50 μl onto a polystyrene microplate.
The paranitroanilide liberated or the fibrin formed by the action of the serine protease is measured spectrophotometrically at 405 nm after reacting for from 10 to 30 minutes at 20° C.

T1 sequence (P04070 212-461 limits assumed): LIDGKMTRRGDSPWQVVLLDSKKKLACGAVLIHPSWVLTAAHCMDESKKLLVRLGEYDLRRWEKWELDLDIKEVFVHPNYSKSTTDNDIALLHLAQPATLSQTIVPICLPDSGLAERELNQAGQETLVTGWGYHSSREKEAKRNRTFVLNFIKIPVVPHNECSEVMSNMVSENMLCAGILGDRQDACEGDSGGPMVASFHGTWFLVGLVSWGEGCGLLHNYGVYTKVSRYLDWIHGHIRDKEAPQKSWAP
T1 sequence (P04070 43-197 limits assumed): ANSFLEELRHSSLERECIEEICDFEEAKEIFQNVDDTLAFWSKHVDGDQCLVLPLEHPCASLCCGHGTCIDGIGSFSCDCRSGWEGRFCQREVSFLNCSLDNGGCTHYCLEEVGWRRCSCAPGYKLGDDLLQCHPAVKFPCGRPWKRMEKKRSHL
Procedure for purified human thrombin: as §1

Consider `N=C(N)c1ccc(CNC(=O)C2(NC(=O)[C@H](NCC(=O)O)C3CCCCC3)Cc3ccccc3C2)cc1` [Example 1, {[(1R)-2-({2-[({4-Amidinobenzyl}-amino)-carbonyl]-indan-2-yl}-amino)-1-cyclohexyl-2-oxoethyl]-amino}acetic acid hydrochloride], for which the IC50 (usually the concentration that inhibits the measured activity by half) is above 33000 nM on purified human thrombin, 820 nM in assay [1] and 1100 nM at purified human plasmin.
